Two compounds from patent US5354738A, “Platelet aggregation inhibitors” (G. D. Searle & Co., priority 1992, dated 1994) can be followed below.

The structures appear in SMILES notation.

This assay concerns Dog PRP. The experiment in a line: In-Vitro Platelet Aggregation in PRP (ADP-induced, dog platelet-rich plasma). The class given is cell-based. Particulars: Canis lupus familiaris, 1 minute preincubation at 37° C., IC50 by linear regression of dose response curve. As to the method: In-Vitro Platelet Aggregation in PRP
Healthy male or female dogs were fasted for 8 hours prior to drawing blood; then 30 ml whole blood was collected using a butterfly needle and 30 cc plastic syringe with 3 ml of 0.129M buffered sodium citrate (3.8%). The syringe was rotated carefully as blood was drawn to mix the citrate. Platelet-rich plasma (PRP) was prepared by centrifugation at 975×g for 3.17 minutes at room temperature, allowing the centrifuge to coast to a stop without braking. The PRP was removed from the blood with a plastic pipette and placed in a plastic capped, 50 ml Corning conical sterile centrifuge tube which was held at room temperature. Platelet poor plasma (PPP) was prepared by centrifuging the remaining blood at 2000×g for 15 minutes at room temperature allowing the centrifuge to coast to a stop without braking. The PRP was adjusted with PPP to a count of 2-3×10^8 platelets per ml. 400 μl of the PRP preparation and 50 μl of the compound to be tested or saline were preincubated for 1 minute at 37° C. in a BioData aggregometer (BioData, Horsham, Pa.). 50 μl of adenosine 5'-diphosphate (ADP) (50 μm final concentration) was added to the cuvettes and the aggregation was monitored for 1 minute. All compounds are tested in duplicate. Results are calculated as follows: […]

The IC50 is the concentration needed to halve the response being measured. `N=C(N)c1ccc(CCCCNC(=O)N[C@@H](CC(=O)O)C(=O)N[C@@H](Cc2ccccc2)C(=O)O)cc1` [Example 2, N-[N-[[[4-[4-(aminoiminomethyl)phenyl]butyl]amino]-carbonyl]-L-α-aspartyl]-L-phenylalanine] yielded a half-inhibitory concentration (IC50) of 760 nM.

`N=C(N)c1ccc(CCCCNC(=O)N[C@@H](CC(=O)O)C(=O)N[C@@H](Cc2c[nH]c3ccccc23)C(=O)O)cc1` [Example 3, N-[N-[[[4-[4-(aminoiminomethyl)phenyl]butyl]amino]carbonyl]-L-α-spartyl]-L-tryptophane]: the IC50 was 200 nM.
